Experimental data as given in US7022709B2, “Selective PDE 2 inhibitors as pharmaceuticals for improving perception” (priority 2000, dated 2006).
Like-named read-outs stand apart in the source and are kept apart here.

Experiments:
adenosine deaminase = adenosine deaminase (Homo sapiens, UniProt P00813); conditions: read-out: IC50 adenosine deaminase; cited from earlier work
PDE2 [1] = target: T1, PDE2 (Homo sapiens, UniProt O00408); conditions: cited from earlier work
[2] = test system: primary mouse (E18) cortex cultures; assay: Increasing the intracellular neuronal cGMP concentration in cell cultures; format: cell-based; conditions: 100 nM Example 1, parallel incubation with 100 µM SNP, 20 min, 37° C., mouse cortical neurons
Protocol: PDE 2 inhibitors increase the intracellular neronal cGMP concentration after prestimulation of guanylate cyclase with 10^−4 M sodium nitroprusside (SNP) in primary mouse brain cell cultures.
Mouse embryos were decapitated and the heads were transferred into dissection dishes. The scalp and roof of the skull were removed, and the exposed brains were transferred into another Petri dish. Using a binocular microscope and two forceps, the cerebrum (cortex) was isolated and cooled to 4° C. with ice. This dissection and the isolation of the cortical neurons were then carried out in accordance with a standard protocol with the papain dissociation system (Worthington Biochemical Corporation, Lakewood, N.J. 08701, USA) (Huettner et al. J. Neurosci. 1986, 6, 3044–3060.). […] The cells were then lysed with 200 μl lysis buffer (cGMP kit code RPN 226; from Amersham Pharmacia Biotech.) and cGMP concentration was measured as stated by the manufacturer. […]
Cells were treated with […] SNP (0) or with […] SNP and Example 1 (1×10^−8 M; 5×10^−8 M; 1×10^−7 M; 5×10^−7 M; 1×10^−6 M) for 20 min. The intracellular cGMP level was then measured.

PDE2 [3] = target: T2, PDE2 (Bos taurus, UniProt P14099); assay: PDE inhibition, cGMP-stimulated PDE2 from bovine myocardium; format: biochemical
T2 construct: from tissue; host or cells: bovine myocardium
T2 sequence (P14099 1-921): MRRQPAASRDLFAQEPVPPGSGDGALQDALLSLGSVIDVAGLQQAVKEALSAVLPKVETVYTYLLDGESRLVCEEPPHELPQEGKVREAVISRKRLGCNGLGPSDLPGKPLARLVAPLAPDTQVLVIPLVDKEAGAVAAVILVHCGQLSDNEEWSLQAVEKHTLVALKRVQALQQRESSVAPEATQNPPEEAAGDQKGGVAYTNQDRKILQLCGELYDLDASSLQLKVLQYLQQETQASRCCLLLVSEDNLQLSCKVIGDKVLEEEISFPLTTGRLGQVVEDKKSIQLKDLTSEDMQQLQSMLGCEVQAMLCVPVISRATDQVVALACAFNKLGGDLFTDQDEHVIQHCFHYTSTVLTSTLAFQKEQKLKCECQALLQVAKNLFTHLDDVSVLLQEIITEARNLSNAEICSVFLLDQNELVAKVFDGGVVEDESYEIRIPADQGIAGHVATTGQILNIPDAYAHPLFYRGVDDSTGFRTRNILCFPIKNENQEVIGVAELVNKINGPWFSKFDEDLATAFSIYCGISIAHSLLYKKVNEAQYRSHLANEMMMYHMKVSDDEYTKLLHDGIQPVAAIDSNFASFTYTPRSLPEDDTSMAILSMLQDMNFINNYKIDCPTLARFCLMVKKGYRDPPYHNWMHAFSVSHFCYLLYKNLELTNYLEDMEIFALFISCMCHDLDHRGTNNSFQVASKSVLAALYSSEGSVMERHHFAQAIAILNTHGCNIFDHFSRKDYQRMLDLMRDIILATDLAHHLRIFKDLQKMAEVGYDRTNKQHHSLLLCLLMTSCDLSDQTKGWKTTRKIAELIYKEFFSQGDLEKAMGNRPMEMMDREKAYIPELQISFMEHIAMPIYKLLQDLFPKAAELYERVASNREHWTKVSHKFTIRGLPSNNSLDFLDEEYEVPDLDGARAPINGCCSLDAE
Excerpt: (§1) The PDE 2 which can be stimulated by cGMP is isolated from bovine myocardium. The PDE 1 which can be stimulated by Ca^2+ calmodulin is isolated from porcine aorta, porcine brain or, preferably, from bovine aorta. The cGMP-specific PDE 5 is obtained from porcine small intestine, porcine aorta, human blood platelets and, preferably, from bovine aorta. Purification takes place by anion exchange chromatography on MonoQ^R Pharmacia essential by the method of Hoey, M; Houslay, M. D., Biochem. Pharmacol. 1990, 40, 193–202 and Lugman et al. Biochem. Pharmacol. 1986, 35, 1743–1751.
(§2) The enzymatic activity is determined in an assay mixture of 100 μl in 20 mM Tris/HCl buffer pH 7.5 which contains 5 mM MgCl2, 0.1 mg/ml bovine serum albumin and 800 Bq of either [^3H]-cAMP or [^3H]-cGMP. The final concentration of the respective nucleotides is 10^−6 mol/l. […] 100 μl of the reaction mixture are separated by HPLC, and the cleavage products are determined quantitatively on line using a flow scintillation counter. The substance concentration at which the reaction rate is reduced by 50% is measured. […]
(§3) Test substances are dissolved in 100% DMSO (10 mM), and this solution is diluted further with H2O (maximum final concentration in the assay: 10 μM). […] After the beads have settled out (about 15 min), the plate is measured in a beta counter.

PDE3B = target: T3, PDE3B (Homo sapiens, UniProt Q13370); assay: PDE inhibition, human recombinant PDE3B, [3H]cAMP SPA; format: biochemical
T3 construct: made in house; host or cells: Sf9 cells, pFASTBAC baculovirus expression system (Gibco BRL)
Protocol: (§4) Human recombinant PDE2 (Rosman et al. Gene 1997 191, 89–95), PDE3B (Miki et al. Genomics 1996 36, 476–485), PDE4B (Bolger et al. Mol. Cell. Biol. 1993 13, 6558–6571) and PDE7B (Hetman et al. Proc. Natl. Acad. Sci. U.S.A. 2000 97, 472–476) are expressed in Sf9 cells with the aid of the pFASTBAC baculovirus expression system (Gibco BRL).
(§5) The activity of the test substances on human recombinant PDE2, PDE3B, PDE4B and PDE7B is determined using the [^3H]cAMP scintillation proximity assay (SPA) kit (TRKQ7090) from Amersham International (Little Chalfont, England) and on PDE1 and PDE5 using the [^3H]cGMP scintillation proximity assay (SPA) kit (TRKQ7100) from Amersham International (Little Chalfont, England).
as §3, with “μM). The PDE2 is prestimulated by adding cGMP (final concentration in the assay: 10^−6 M). The enzyme is diluted in PDE buffer (20 mM TRIS/HCl, 5 mM MgCl2, 0.1 mg/ml albumin, pH 7.5).” for “μM).”
(§6) Calmodulin 10^−7 M and CaCl2 1 μM are added to the reaction mixture for the PDE1 measurement. PDE5 is measured using the [^3H] cGMP SPA assay. PDE3B, PDE4B and PDE7B are measured using the [^3H] cAMP scintillation proximity assay.

PDE2 [4] = target: T1, PDE2; assay: PDE inhibition, human recombinant PDE2, [3H]cAMP SPA; format: biochemical; design: made in house; host or cells: Sf9 cells, pFASTBAC baculovirus expression system (Gibco BRL)
Protocol: as §4, §5
as §3, with “μM). The PDE2 is prestimulated by adding cGMP (final concentration in the assay: 10^−6 M). The enzyme is diluted in PDE buffer (20 mM TRIS/HCl, 5 mM MgCl2, 0.1 mg/ml albumin, pH 7.5).” for “μM).”

PDE7B = target: T4, PDE7B (Homo sapiens, UniProt Q9NP56); assay: PDE inhibition, human recombinant PDE7B, [3H]cAMP SPA; format: biochemical
T4 construct: made in house; host or cells: Sf9 cells, pFASTBAC baculovirus expression system (Gibco BRL)
Protocol: as §4, §5
as §3, with “μM). The PDE2 is prestimulated by adding cGMP (final concentration in the assay: 10^−6 M). The enzyme is diluted in PDE buffer (20 mM TRIS/HCl, 5 mM MgCl2, 0.1 mg/ml albumin, pH 7.5).” for “μM).”
as §6

rats = assay: Object recognition test; format: in vivo, rat; conditions: second run 24 hours later
Protocol: The object recognition test is a memory test. It measures the ability of rats (and mice) to distinguish between familiar and unfamiliar objects.
The test was carried out as described (Blokland et al. NeuroReport 1998, 9, 4205–4208; Ennaceur, A., Delacour, J., Behav. Brain Res. 1988, 31, 47–59; Ennaceur, A., Meliani, K., Psychopharmacology 1992, 109, 321–330; Prickaerts, et al. Eur. J. Pharmacol. 1997, 337, 125–136).
In a first run, a rat is confronted in an otherwise empty observation arena of relatively large size by two identical objects. The rat will investigate, i.e. sniff round and touch, both objects extensively. In a second run, after an interval of 24 hours, the rat is put in the observation arena again. One of the familiar objects has now been replaced by a new, unfamiliar object. If a rat recognizes the familiar object, it will concentrate on investigating the unfamiliar object. However, after 24 hours, a rat has normally forgotten which object it investigated in the first run, and it will therefore inspect both objects to the same extent. Administration of a substance with a learning- and memory-improving effect will lead to a rat recognizing the object seen in the first run 24 hours previously as familiar. It will investigate the new, unfamiliar object in more detail than the familiar one. This memory ability is expressed in a discrimination index. A discrimination index of zero means that the rat investigates both objects, the old and the new, for equal times; that is to say it has not recognized the old object and reacts to both objects as if they were unfamiliar and new.
The effects of Example 1 on object recognition by rats 24 hours after the first run were investigated. The animals received Tylose alone, or Example 1 in dosages of 0.3, 1.0 or 3.0 mg/kg of body weight suspended in Tylose, orally, immediately following the first run with two identical objects. […] After a washout period of 2 or 3 days, a new dosage of Example 1 was tested in the same rats, until the memory capacity of all the rats had been measured twice with all the dosages. […]

PDE4B = target: T5, PDE4B (Homo sapiens, UniProt Q07343); assay: PDE inhibition, human recombinant PDE4B, [3H]cAMP SPA; format: biochemical
T5 construct: made in house; host or cells: Sf9 cells, pFASTBAC baculovirus expression system (Gibco BRL)
Protocol: as §4, §5
as §3, with “μM). The PDE2 is prestimulated by adding cGMP (final concentration in the assay: 10^−6 M). The enzyme is diluted in PDE buffer (20 mM TRIS/HCl, 5 mM MgCl2, 0.1 mg/ml albumin, pH 7.5).” for “μM).”
as §6

PDE1 = assay: PDE inhibition, PDE1 (Ca-calmodulin-dependent); format: biochemical; conditions: bovine PDE1
Excerpt: as §1
as §2, with “[^3H]-cGMP.” for “[^3H]-cGMP. The final concentration of the respective nucleotides is 10^−6 mol/l.”
as §5, with “England). […]” for “England).”

PDE5 = target: T6, PDE5 (Homo sapiens, UniProt O76074); assay: PDE inhibition, PDE5, [3H]cGMP SPA; format: biochemical
T6 construct: from tissue; host or cells: human blood platelets (inferred; b27 also lists porcine small intestine, porcine aorta and, preferably, bovine aorta)
Excerpt: as §1
as §2, with “[^3H]-cGMP.” for “[^3H]-cGMP. The final concentration of the respective nucleotides is 10^−6 mol/l.”
as §5, with “England). […]” for “England).”

T1 sequence (O00408 whole entry): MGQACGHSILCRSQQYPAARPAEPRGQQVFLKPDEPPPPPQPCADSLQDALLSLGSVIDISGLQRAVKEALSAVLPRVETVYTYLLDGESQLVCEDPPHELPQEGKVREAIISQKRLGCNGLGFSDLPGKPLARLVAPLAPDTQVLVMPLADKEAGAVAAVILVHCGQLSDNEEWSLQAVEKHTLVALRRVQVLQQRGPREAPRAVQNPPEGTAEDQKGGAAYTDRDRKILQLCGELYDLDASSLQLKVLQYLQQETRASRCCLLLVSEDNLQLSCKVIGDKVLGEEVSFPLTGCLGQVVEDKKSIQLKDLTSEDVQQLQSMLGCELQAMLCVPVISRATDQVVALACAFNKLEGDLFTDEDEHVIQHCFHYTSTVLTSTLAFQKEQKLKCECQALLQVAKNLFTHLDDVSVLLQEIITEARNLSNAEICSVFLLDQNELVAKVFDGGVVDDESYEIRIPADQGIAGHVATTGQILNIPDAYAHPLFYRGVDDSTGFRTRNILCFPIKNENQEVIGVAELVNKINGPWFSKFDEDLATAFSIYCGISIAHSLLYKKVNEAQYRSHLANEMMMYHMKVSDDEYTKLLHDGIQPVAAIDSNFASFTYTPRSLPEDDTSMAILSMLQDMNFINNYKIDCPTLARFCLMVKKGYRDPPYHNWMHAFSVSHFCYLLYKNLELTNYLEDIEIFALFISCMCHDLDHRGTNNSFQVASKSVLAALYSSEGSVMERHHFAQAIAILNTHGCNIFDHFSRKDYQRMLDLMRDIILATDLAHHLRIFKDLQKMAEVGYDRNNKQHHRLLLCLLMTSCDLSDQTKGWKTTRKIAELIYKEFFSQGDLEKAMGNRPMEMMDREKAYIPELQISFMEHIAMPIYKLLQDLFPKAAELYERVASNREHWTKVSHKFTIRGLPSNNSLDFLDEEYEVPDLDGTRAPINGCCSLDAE
T3 sequence (Q13370 whole entry): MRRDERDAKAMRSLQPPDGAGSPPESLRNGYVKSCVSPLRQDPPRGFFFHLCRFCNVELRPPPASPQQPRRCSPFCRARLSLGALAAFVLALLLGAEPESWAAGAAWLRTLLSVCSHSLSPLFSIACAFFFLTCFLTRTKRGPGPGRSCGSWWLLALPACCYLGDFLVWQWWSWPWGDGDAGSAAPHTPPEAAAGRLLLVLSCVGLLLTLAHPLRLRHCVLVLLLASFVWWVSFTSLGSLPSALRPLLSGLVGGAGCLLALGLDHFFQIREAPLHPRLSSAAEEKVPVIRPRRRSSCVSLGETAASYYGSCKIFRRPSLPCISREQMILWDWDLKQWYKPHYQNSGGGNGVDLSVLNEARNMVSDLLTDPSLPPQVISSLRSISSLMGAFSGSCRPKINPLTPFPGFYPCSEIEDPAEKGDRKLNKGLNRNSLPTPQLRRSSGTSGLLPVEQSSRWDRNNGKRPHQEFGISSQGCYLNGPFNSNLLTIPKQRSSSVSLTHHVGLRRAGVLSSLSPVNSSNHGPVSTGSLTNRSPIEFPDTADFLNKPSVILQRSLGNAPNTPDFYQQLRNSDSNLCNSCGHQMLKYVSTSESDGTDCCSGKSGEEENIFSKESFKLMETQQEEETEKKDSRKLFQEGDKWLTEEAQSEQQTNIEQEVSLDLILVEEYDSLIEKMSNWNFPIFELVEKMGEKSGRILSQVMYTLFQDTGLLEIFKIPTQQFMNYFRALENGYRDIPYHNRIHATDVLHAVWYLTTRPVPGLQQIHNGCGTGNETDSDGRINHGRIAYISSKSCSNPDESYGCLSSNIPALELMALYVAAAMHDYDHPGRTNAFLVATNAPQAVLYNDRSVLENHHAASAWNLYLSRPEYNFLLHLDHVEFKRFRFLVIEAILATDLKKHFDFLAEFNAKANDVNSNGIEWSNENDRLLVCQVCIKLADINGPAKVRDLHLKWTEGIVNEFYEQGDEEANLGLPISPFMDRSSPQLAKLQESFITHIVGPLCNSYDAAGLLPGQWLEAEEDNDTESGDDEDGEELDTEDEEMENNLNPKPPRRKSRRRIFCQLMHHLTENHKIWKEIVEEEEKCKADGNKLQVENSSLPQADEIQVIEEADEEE
Sequence of adenosine deaminase (P00813 whole entry, species assumed): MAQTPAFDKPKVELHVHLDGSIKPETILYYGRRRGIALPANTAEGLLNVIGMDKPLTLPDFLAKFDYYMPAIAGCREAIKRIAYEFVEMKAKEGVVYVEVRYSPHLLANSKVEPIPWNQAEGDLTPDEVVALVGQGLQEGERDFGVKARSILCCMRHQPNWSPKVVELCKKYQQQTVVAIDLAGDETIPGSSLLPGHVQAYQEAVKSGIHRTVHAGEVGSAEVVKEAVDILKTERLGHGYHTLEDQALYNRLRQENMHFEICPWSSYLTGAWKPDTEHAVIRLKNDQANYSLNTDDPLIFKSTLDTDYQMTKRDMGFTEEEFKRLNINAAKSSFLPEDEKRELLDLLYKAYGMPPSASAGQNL
T5 sequence (Q07343 whole entry): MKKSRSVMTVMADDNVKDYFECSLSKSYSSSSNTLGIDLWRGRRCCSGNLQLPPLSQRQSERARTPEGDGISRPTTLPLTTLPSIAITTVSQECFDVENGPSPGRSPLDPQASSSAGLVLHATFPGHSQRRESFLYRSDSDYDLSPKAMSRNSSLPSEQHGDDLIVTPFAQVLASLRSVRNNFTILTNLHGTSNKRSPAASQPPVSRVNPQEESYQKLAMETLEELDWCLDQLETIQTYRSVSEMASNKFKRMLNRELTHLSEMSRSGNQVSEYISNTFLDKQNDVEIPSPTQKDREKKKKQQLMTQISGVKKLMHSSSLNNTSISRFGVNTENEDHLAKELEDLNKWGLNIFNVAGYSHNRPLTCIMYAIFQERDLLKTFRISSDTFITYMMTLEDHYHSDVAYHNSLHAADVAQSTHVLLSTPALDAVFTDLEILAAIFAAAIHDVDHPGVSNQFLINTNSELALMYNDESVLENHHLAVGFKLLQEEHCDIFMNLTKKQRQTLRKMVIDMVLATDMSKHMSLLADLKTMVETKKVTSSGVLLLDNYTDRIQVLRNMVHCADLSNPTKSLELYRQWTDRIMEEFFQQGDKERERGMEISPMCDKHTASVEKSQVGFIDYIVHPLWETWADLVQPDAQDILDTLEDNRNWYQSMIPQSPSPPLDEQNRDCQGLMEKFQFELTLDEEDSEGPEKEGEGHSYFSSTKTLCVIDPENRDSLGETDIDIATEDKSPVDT
T4 sequence (Q9NP56 whole entry): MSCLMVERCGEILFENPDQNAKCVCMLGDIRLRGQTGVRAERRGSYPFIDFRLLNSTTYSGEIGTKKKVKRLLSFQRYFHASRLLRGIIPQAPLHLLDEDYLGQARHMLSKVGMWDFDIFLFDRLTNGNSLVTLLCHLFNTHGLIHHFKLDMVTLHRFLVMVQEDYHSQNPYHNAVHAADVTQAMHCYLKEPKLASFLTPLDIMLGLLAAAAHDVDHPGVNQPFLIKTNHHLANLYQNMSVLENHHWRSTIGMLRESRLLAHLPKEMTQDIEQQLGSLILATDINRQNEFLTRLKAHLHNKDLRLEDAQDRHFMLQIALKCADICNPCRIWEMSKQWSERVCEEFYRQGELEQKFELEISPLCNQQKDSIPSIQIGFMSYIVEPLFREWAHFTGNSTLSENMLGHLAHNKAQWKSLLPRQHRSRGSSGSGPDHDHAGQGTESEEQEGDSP

| IC50 (PDE2 [3]) [µM] | IC50 (PDE3B) [µM] | IC50 (PDE2 [4]) [µM] | IC50 (PDE7B) [µM] | IC50 (PDE4B) [µM] | IC50 (PDE1) [µM] | IC50 (PDE5) [µM] | Structure (SMILES) | IC50 (adenosine deaminase) [µM] | IC50 (PDE2 [1]) [µM] | intracellular cGMP level [2] | memory capacity in the second run compared with control (Tylose alone) (rats; 0.3 mg/kg orally immediately after the first run) | memory capacity in the second run compared with control (Tylose alone) (rats; 1.0 mg/kg orally immediately after the first run) | discrimination index (d2) (rats; 0.3 and 1.0 mg/kg orally) |
| --- | --- | --- | --- | --- | --- | --- | --- | --- | --- | --- | --- | --- | --- |
|  |  |  |  |  |  |  | CCCCCCC(C(C)O)n1cnc2c(N)ncnc21 (stereo not drawn) [EHNA, erythro-9-(2-hydroxy-3-nonyl)adenine] | 0.003 | 1 |  |  |  |  |
| 0.007 | > 4 | 0.006 | 1.6 | 2.9 | 0.2 | 0.3 | COc1ccc(Cc2nc3c(c(C)nn3C(CCCc3ccccc3)C(C)O)c(=O)[nH]2)cc1OC (stereo not shown) [Example 1, 6-(3,4-dimethoxybenzyl)-1-[1-(1-hydroxyethyl)-4-phenylbutyl]-3-methyl-1,5-dihydropyrazolo[3,4-d]pyrimidin-4-one] |  |  | distinct increase | improved | improved | greater than zero |
